From US9598423B2 (BRISTOL-MYERS SQUIBB COMPANY, priority 2013, dated 2017) come the findings set out here.

One test has as its target CK1ε (Homo sapiens (Human), UniProt P49674). Nature of the test: CK1ε kinase assay (Caliper LABCHIP electrophoretic separation of fluoresceinated peptide substrate and product). The format is biochemical. The following applies: 200 pM CK1ε, 50 μM ATP, 1.5 μM peptide substrate, 22 hours at room temperature; read-out: CK1ε (IC50). In short, it runs like this:
(§1)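 IC50 values were obtained by non-linear regression from eleven-concentration titrations. The kinase reactions were incubated for 22 hours at room temperature before termination with 35 mM EDTA.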

The next test concerns the target CK1δ (Homo sapiens (Human), UniProt P48730). Briefly: CK1δ kinase assay (Caliper LABCHIP electrophoretic separation of fluoresceinated peptide substrate and product). The following applies: 200 pM CK1δ, 50 μM ATP, 1.5 μM peptide substrate, 22 hours at room temperature; read-out: CK1δ (IC50). The format is biochemical. In short, it runs like this: as §1

Sequence of CK1ε (P49674 whole entry): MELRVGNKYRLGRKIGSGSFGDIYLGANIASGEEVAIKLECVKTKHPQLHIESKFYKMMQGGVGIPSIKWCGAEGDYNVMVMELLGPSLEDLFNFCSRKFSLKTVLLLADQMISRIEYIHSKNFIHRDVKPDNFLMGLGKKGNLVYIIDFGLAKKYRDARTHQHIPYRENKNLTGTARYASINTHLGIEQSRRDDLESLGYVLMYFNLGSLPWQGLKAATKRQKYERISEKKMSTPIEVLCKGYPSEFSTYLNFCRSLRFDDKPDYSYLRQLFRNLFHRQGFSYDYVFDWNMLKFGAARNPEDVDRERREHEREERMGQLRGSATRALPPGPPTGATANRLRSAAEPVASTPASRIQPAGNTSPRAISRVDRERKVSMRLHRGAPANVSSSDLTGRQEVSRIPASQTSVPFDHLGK
Sequence of CK1δ (P48730 whole entry): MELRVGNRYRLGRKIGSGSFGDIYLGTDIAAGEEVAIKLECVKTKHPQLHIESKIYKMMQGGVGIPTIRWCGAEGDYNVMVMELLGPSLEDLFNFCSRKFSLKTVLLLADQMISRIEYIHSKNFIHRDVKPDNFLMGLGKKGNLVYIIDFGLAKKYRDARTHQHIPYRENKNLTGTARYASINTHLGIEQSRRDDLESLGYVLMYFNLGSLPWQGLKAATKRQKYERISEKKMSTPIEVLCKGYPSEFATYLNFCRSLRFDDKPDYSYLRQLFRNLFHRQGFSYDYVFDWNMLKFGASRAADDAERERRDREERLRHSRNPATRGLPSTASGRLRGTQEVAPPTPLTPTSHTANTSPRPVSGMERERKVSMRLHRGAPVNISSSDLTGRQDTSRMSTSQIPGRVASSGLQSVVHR

Take `Cc1ccc(-c2nn3c(c2C(N)=O)CN(C(=O)Nc2ccc4ncsc4c2)CC3)cc1Cl` [Compound 254, N^5-(Benzo[d]thiazol-6-yl)-2-(3-chloro-4-methylphenyl)-6,7-dihydropyrazolo[1,5-a] pyrazine-3,5(4H)-dicarboxamide]: the IC50 at CK1ε and at CK1δ was 0.01 to 10 nM throughout.
As for `N#Cc1ccc(NC(=O)N2CCn3nc(-c4ccc(F)c(F)c4)c(C(N)=O)c3C2)cc1C(F)(F)F` [Compound 237, N^5-(4-Cyano-3-(trifluoromethyl)phenyl)-2-(3,4-difluorophenyl)-6,7-dihydropyrazolo [1,5-a]pyrazine-3,5(4H)-dicarboxamide], the IC50 at CK1ε and at CK1δ was 0.01 to 10 nM throughout.
As to `Cc1ccc(-c2nn3c(c2C(N)=O)CN(C(=O)Nc2ccc(C#N)c(C)c2)CC3)cc1Cl` [Compound 249, 2-(3-Chloro-4-methylphenyl)-N^5-(4-cyano-3-methylphenyl)-6,7-dihydropyrazolo[1,5-a]pyrazine-3,5(4H)-dicarboxamide], the IC50 at CK1ε and on CK1δ was 0.01 to 10 nM throughout.
With `NC(=O)c1c(-c2cccc(Cl)c2)nn2c1CN(C(=O)Nc1cc(F)cc(F)c1)CC2` [Compound 169, 2-(3-Chlorophenyl)-N^5-(3,5-difluorophenyl)-6,7-dihydropyrazolo[1,5-a] pyrazine-3,5(4H)-dicarboxamide], the IC50 at CK1ε and on CK1δ was 0.01 to 10 nM throughout.
As for `NC(=O)c1c(-c2cccc(F)c2)nn2c1CN(C(=O)NCc1ccc(Cl)cc1Cl)CC2` [Compound 45, N^5-(2,4-Dichlorobenzyl)-2-(3-fluorophenyl)-6,7-dihydropyrazolo[1,5-a]pyrazine-3,5(4H)-dicarboxamide], the IC50 on CK1ε and on CK1δ was 0.01 to 10 nM throughout.
On to `CC(=O)N1CC2(C1)CN(C(=O)Nc1ccc(C#N)cc1)Cc1c(C(N)=O)c(-c3ccc(F)c(Cl)c3)nn12` [Compound A89, 1-Acetyl-2′-(3-chloro-4-fluorophenyl)-N^5′-(4-cyanophenyl)-4′H-spiro[azetidine-3,7′-pyrazolo[1,5-a]pyrazine]-3′,5′(6′H)-dicarboxamide], for which the IC50 at CK1ε and on CK1δ was 0.01 to 10 nM in each case.
As for `N#Cc1ccc(NC(=O)N2CCn3nc(-c4ccc(F)c(Cl)c4)c(C(N)=O)c3C2)cc1` [Compound 172], the half-maximal inhibitory concentration (IC50) at CK1ε and on CK1δ was 0.01 to 10 nM throughout.
Regarding `N#Cc1ccc(NC(=O)N2Cc3c(C(N)=O)c(-c4ccc(F)c(Cl)c4)nn3C3(COC3)C2)cc1` [Compound A88, 2′-(3-Chloro-4-fluorophenyl)-N^5′-(4-cyanophenyl)-4′H-spiro[oxetane-3,7′-pyrazolo[1,5-a]pyrazine]-3′,5′(6′H)-dicarboxamide], the IC50 at CK1ε and at CK1δ was 0.01 to 10 nM each time.
Consider `Cc1cccc(-c2nn3c(c2C(N)=O)CN(C(=O)Nc2ccc(C#N)cc2)CC3)c1` [Compound 289, N^5-(4-Cyanophenyl)-2-(m-tolyl)-6,7-dihydropyrazolo [1,5-a]pyrazine-3,5(4H)-dicarboxamide], for which the half-maximal inhibitory concentration (IC50) at CK1ε and on CK1δ was 0.01 to 10 nM in each case.
Regarding `NC(=O)c1c(-c2cccc(F)c2)nn2c1CN(C(=O)Nc1ccc(Cl)cc1)CC2` [Compound 10, N^5-(4-Chlorophenyl)-2-(3-fluorophenyl)-6,7-dihydropyrazolo[1,5-a]pyrazine-3,5(4H)-dicarboxamide], the IC50 on CK1ε and on CK1δ was 0.01 to 10 nM each time.
As to `NC(=O)c1c(-c2ccc(F)c(Cl)c2)nn2c1CN(C(=O)Nc1ccc(OC(F)(F)F)cc1)CC2` [Compound 181, 2-(3-Chloro-4-fluorophenyl)-N^5-(4-(trifluoromethoxy)phenyl)-6,7-dihydropyrazolo[1,5-a] pyrazine-3,5(4H)-dicarboxamide], the IC50 on CK1ε and on CK1δ was 0.01 to 10 nM throughout.
In the case of `Cc1nc2cc(-c3nn4c(c3C(N)=O)CN(C(=O)Nc3ccc(C#N)c(Cl)c3)CC4)cc(Cl)c2o1` [Compound 312, 2-(7-Chloro-2-methylbenzo[d]oxazol-5-yl)-N^5-(3-chloro-4-cyanophenyl)-6,7-dihydropyrazolo[1,5-a]pyrazine-3,5(4H)-dicarboxamide], the IC50 at CK1ε and on CK1δ was 0.01 to 10 nM throughout.
On to `Cc1cc(-c2nn3c(c2C(N)=O)CN(C(=O)Nc2ccc(C#N)cc2)CC3)ccc1F` [Compound 248, N^5-(4-Cyanophenyl)-2-(4-fluoro-3-methylphenyl)-6,7-dihydropyrazolo[1,5-a]pyrazine-3,5(4H)-dicarboxamide], for which the IC50 at CK1ε and on CK1δ was 0.01 to 10 nM throughout.
Turning to `N#Cc1ccc(NC(=O)N2Cc3c(C(N)=O)c(-c4ccc(F)c(Cl)c4)nn3C(C(=O)NC3CCOCC3)C2)cc1` (single isomer, unassigned) [Compound A28, 2-(3-Chloro-4-fluorophenyl)-N^5-(4-cyanophenyl)-N^7-(tetrahydro-2H-pyran-4-yl)-6,7-dihydropyrazolo[1,5-a]pyrazine-3,5,7(4H)-tricarboxamide], the IC50 on CK1ε and at CK1δ was 10 to 100 nM in each case.
In the case of `NC(=O)c1c(-c2cc(Cl)c(F)c(Cl)c2)nn2c1CN(C(=O)Nc1ccc(C(F)(F)F)cc1)CC2` [Compound 262, 2-(3,5-Dichloro-4-fluorophenyl)-N^5-(4-(trifluoromethyl)phenyl)-6,7-dihydropyrazolo[1,5-a]pyrazine-3,5(4H)-dicarboxamide], the IC50 on CK1ε and on CK1δ was 0.01 to 10 nM throughout.
With `COc1ccc(NC(=O)N2CCn3nc(-c4ccc(F)c(Cl)c4)c(C(N)=O)c3C2)cc1C(F)(F)F` [Compound 189, 2-(3-Chloro-4-fluorophenyl)-N^5-(4-methoxy-3-(trifluoromethyl)phenyl)-6,7-dihydropyrazolo[1,5-a]pyrazine-3,5(4H)-dicarboxamide], the IC50 at CK1ε and on CK1δ was 0.01 to 10 nM each time.
With `Cc1cc(NC(=O)N2CCn3nc(-c4cc(F)c5cnn(C)c5c4)c(C(N)=O)c3C2)ccc1C#N` [compound 327], the IC50 on CK1ε and on CK1δ was 0.01 to 10 nM each time.
`CN(C)c1cc(Cl)cc(-c2nn3c(c2C(N)=O)CN(C(=O)Nc2ccc(C#N)c(C(F)(F)F)c2)CC3)c1` [Compound 266, 2-(3-Chloro-5-(dimethylamino)phenyl)-N^5-(4-cyano-3-(trifluoromethyl)phenyl)-6,7-dihydropyrazolo[1,5-a]pyrazine-3,5(H)-dicarboxamide]: the 50% inhibitory concentration (IC50) on CK1ε and at CK1δ was 0.01 to 10 nM throughout.
As for `COc1cc(F)cc(-c2nn3c(c2C(N)=O)CN(C(=O)Nc2ccc(C#N)cc2)CC3)c1` [Compound 285, N^5-(4-Cyanophenyl)-2-(3-fluoro-5-methoxyphenyl)-6,7-dihydropyrazolo[1,5-a] pyrazine-3,5(4H)-dicarboxamide], the IC50 on CK1ε and on CK1δ was 0.01 to 10 nM throughout.
Turning to `Cc1ncc(-c2ccc(NC(=O)N3CCn4nc(-c5cccc(Cl)c5)c(C(N)=O)c4C3)cc2)o1` [Compound A47, 2-(3-Chlorophenyl)-N^5-(4-(2-methyloxazol-5-yl)phenyl)-6,7-dihydropyrazolo[1,5-a]pyrazine-3,5(4H)-dicarboxamide], the IC50 at CK1ε and at CK1δ was 0.01 to 10 nM in each case.
`CC1Cn2nc(-c3ccc(F)c(Cl)c3)c(C(N)=O)c2CN1C(=O)Nc1ccc(C#N)cc1` (single isomer, unassigned) [Compound 329, 2-(3-Chloro-4-fluorophenyl)-N^5-(4-cyanophenyl)-6-methyl-6,7-dihydropyrazolo[1,5-a]pyrazine-3,5(4H)-dicarboxamide]: the half-maximal inhibitory concentration (IC50) on CK1ε and on CK1δ was 0.01 to 10 nM throughout.
Turning to `Cn1ncc2cc(-c3nn4c(c3C(N)=O)CN(C(=O)Nc3ccc(C#N)cc3)CC4)cc(Cl)c21` [Compound 318, 2-(7-Chloro-1-methyl-1H-indazol-5-yl)-N^5-(4-cyanophenyl)-6,7-dihydropyrazolo[1,5-a]pyrazine-3,5(4H)-dicarboxamide], the IC50 on CK1ε and on CK1δ was 0.01 to 10 nM throughout.
As for `CC(C)(OC(=O)N1CCC(NC(=O)N2CCn3nc(-c4cccc(F)c4)c(C(N)=O)c3C2)CC1)C(F)(F)F` [Compound 101, 1,1,1-Trifluoro-2-methylpropan-2-yl 4-(3-carbamoyl-2-(3-fluorophenyl)-4,5,6,7-tetrahydropyrazolo[1,5-a]pyrazine-5-carboxamido)piperidine-1-carboxylate], the IC50 on CK1ε and on CK1δ was 0.01 to 10 nM each time.
As for `CC12CC3CC(C)(C1)CC(NC(=O)N1CCn4nc(-c5cccc(F)c5)c(C(N)=O)c4C1)(C3)C2` [Compound 81, N^5-(3,5-Dimethyladamantan-1-yl)-2-(3-fluorophenyl)-6,7-dihydropyrazolo[1,5-a]pyrazine-3,5(4H)-dicarboxamide], the IC50 at CK1ε and on CK1δ was 0.01 to 10 nM in each case.
As to `CS(=O)(=O)Nc1cccc(-c2nn3c(c2C(N)=O)CN(C(=O)Nc2ccc(C#N)cc2)CC3)c1` [Compound 274, N^5-(4-Cyanophenyl)-2-(3-(methylsulfonamido)phenyl)-6,7-dihydropyrazolo[1,5-a] pyrazine-3,5(4H)-dicarboxamide], the IC50 on CK1ε and on CK1δ was 100 to 2000 nM throughout.
With `Cc1cc(NC(=O)N2CCn3nc(-c4cc(Cl)c5[nH]ncc5c4)c(C(N)=O)c3C2)ccc1C#N` [Compound 317, 2-(7-Chloro-1H-indazol-5-yl)-N^5-(4-cyano-3-methylphenyl)-6,7-dihydropyrazolo[1,5-a]pyrazine-3,5(4H)-dicarboxamide], the 50% inhibitory concentration (IC50) at CK1ε and at CK1δ was 0.01 to 10 nM in each case.
Regarding `Cc1nn(C)c2c(Cl)cc(-c3nn4c(c3C(N)=O)CN(C(=O)Nc3ccc(C#N)cc3)CC4)cc12` [Compound 322, 2-(7-Chloro-1,3-dimethyl-1H-indazol-5-yl)-N-(4-cyanophenyl)-6,7-dihydropyrazolo[1,5-a]pyrazine-3,5(4H)-dicarboxamide], the IC50 on CK1ε and at CK1δ was 0.01 to 10 nM throughout.
